Patent US20220127297A1, “Novel Antibacterial 3"-Derivatives Of 4,6-Disubstituted 2,5-Dideoxystreptamine Aminoglycoside Antibiotics” (AGILeBiotics B.V., priority 2018, published 2022)
Read-outs that look alike come from different tables or passages of the source.

What was measured:
[1] = tested on: Escherichia coli ATCC700336; experiment: Urinary tract infection model; type: in vivo, female C3H/HeNRj mice; conditions: for Change from vehicle group / Avg. Log CFU/g (kidney pair): SC, QD; for Change from vehicle group: Avg. Log CFU/g (kidney pair) vs vehicle; for Avg. Log CFU/g (kidney pair): kidneys 24 hours post treatment
Description: 4.3 Urinary Tract Infection Model (Escherichia coli ATCC700336)
Two compounds, i.e. ABX5006 and ABX5026, and a comparator antibiotic (gentamicin sulfate; Cat. No. G4918, Sigma Aldrich) were tested in a mouse model of urinary tract infection with Escherichia coli ATCC700336.
Urinary tract infection model: Pathogen-free female C3H/HeNRj mice (8 mice per dosing group) weighing 24±4 g were used.
For subcutaneous treatment, pre-weighed reference compound (gentamicin sulfate) was dissolved in 0.9% sodium chloride solution, to reach a final concentration of 1.5 mg/mL for a dose of 15 mg/kg (group 3) or 3.0 mg/mL for a dose of 30 mg/kg (group 2). Each mouse was infected transurethral with Escherichia coli ATCC700336 (5.0×10^1 CFU/100 μL/mouse), under light ketamine/xylazine anesthesia. Mice were water deprived 1.5 hours prior to infection and 1 hour post infection.
Animals were dosed subcutaneously once either with gentamicin (groups 2-3), ABX5006 (groups 4-5), ABX5026 (groups 6-7) or vehicle—PBS (group 1) 24 hours post infection.
Both kidneys were aseptically removed and placed into pre-weighed sterile Precellys test tube containing 2 mL of sterile PBS. Post-sampling, Precellys test tubes were weighed once again. Kidneys were homogenized in sterile PBS by Precellys Evolution, homogenizer, BERTIN Technologies, and serially diluted for CFU determination. Kidney pairs of one animal will represent one sample.
Supplies/Chemicals. Tryptic Soy Agar (BD Cat. no. 236950, Becton Dickinson), Trypticase Soy Broth (BD Cat. no. 211768, Becton Dickinson), 2 mL syringes (BD Plastipak, Ref. 300185, Becton Dickinson), 1 mL syringes (BD Plastipak, Ref. 300013, Becton Dickinson), Sterile, single use needles (BD MICROLANCE, 27 G ¾, Nr. 20 ref. 300220, Becton Dickinson), Sterile, single use needles (BD MICROLANCE, 25 G 1, Nr. 18 ref. 300400, Becton Dickinson), Narkamon (100 mg/mL ketamine chloride) (Bioveta, a.s., Czech Republic), Xylazine 2% (Alfasan International B.V., Woerden, Netherlands), Saline (HZ™, serial no.: 1422115), PBS (Sigma, cat. no. P4417, Germany), Precellys lysing kit (ref. no. KT03961-1-302.7, Bertin technologies, France).
Inoculum preparation for intramuscular infection. Escherichia coli ATCC 700336 was grown on Tryptic Soy Agar plate and incubated for 18-20 h at 37° C. Bacterial agar growth was suspended to 1.0×10^10 colony-forming units (CFU)/mL in adequate volume of tryptic soy broth (TSB), and the inoculum was held at 4° C. until it was used for infection.
CFU determination. Kidney pairs were homogenized using a Precellys Evolution homogenizer (Bertin Instruments).

[2] = tested on: clinical isolates of Pseudomonas aeruginosa (and ATCC 27853); experiment: MIC determination at University Medical Center Groningen; type: cell-based
Source text: (§1) 3.4.3 MIC Determination at University Medical Center Groningen (the Netherlands)
(§2) Tested reference compounds. Amikacin sulfate (Cat. No. 01693, Chem-Impex), Gentamicin sulfate (Cat. No. G4918, Sigma Aldrich).
(§3) Bacterial strains/isolates. Pseudomonas aeruginosa ATCC 27853, Escherichia coli ATCC 25922, Klebsiella pneumonia ATCC43816, Acinetobacter baumannii ATCC17978, 9 clinical isolates of Klebsiella pneumonia (origin: 4 unknown, 3 urine, 1 sputum, 1 catheter tip), 7 clinical isolates of Pseudomonas aeruginosa (origin: 3 unknown, 1 wound, 1 catheter, 1 faeces, bronco alveolar liquid=BAL), 8 clinical isolates of Escherichia coli (origin: 2 bile liquid, 2 rectum, 1 throat, 2 blood culture, 1 sputum), 4 clinical isolates of Acinetobacter baumannii (origin: 2 blood culture, 1 sputum, 1 bone).
(§4) Culture media and equipment. As indicated by EUCAST guidelines (European Committee on Antimicrobial Susceptibility Testing (EUCAST); Media preparation for EUCAST disk diffusion testing and for determination of MIC values by the broth microdilution method; Version 5.0, 2017), Mueller Hinton Broth, CM0405, (Oxoid) was used for the broth micro-dilutions; and Mueller Hinton Agar, CM0337, (Oxoid) was used for the plating on agar. The testing assays were conducted in 96-well plates, with U-bottom shape (Greiner Bio-one); All bacteria strains/isolates used were handled in a Laminar flow, Clean Air (Baker). A CO2 incubator commercialized by Sanyo was used. Finally, spectrophotometer measurements were conducted using a Synergy 2 Multi-detection Microplate Reader (BioTek).
(§5) Compound preparation. The compounds were weighed and dissolved into MilliQ water. These concentrated stock aliquots were then further diluted to reach the desired testing concentrations. Serial dilutions were made in order to achieve the ten desired final concentrations for the tested compounds, that ranged between 64-0.125 μg/mL. The concentrations were calculated in respect to the 150 μL of final volume used for each of the 96-wells. Of these dilutions, 100 μL was added in each testing well of a sterile 96-well plate. All compound dilutions were plated in triplicate, while duplicates were used for the two reference antibiotics.
(§6) Inoculum preparation. The clinical isolates were revived from Luria Bertani medium storage at −80° C. by plating them overnight on MH agar plates. The following day, a few colonies were picked and inoculated in small glass bottles containing 10 mL MH broth. Growth was subsequently allowed for approx. 3 hours, at 35° C. with 250 rpm shaking, until the isolates reached late logarithmic growth phase. At this point culture solutions were prepared with an OD600 (optical density measured at 600 nm; measured using Synergy 2 Multi-detection Microplate Reader; BioTek) of 0.05. […] 50 μL of culture suspension was added to each of the wells of the 96 well plate previously loaded with the desired antibiotic/medium solution, reaching a final total volume of 150 μL per well. As controls, blanks of the MH medium and of culture were added to the 96-well plate. Plates were incubated in a plate incubator in static conditions at 35° C. for 18 hours.
(§7) MIC determination. After the incubation time, the MIC value was determined by visual inspection of bacterial growth within 96-well plates. The first column in which there was no visible growth of bacteria was determined as the MIC90 value for the compound tested in that particular row. Additionally, spectrophotometer readouts at 600 nm were recorded for each well.
(§8) MIC90. The MIC90 of a compound was assigned at which no visible growth of bacteria was determined.

[3] = tested on: clinical isolates of Acinetobacter baumannii (and ATCC17978); experiment: as above; type: cell-based
Source text: as §1, §2, §3, §4, §5, §6, §7, §8

SMILES	CFU count reduction in kidneys in comparison to the vehicle control group ([1]; dose 15 mg/kg SC QD)	Change from vehicle group ([1]; dose 15 mg/kg)	Avg. Log CFU/g (kidney pair) ([1]; dose 15 mg/kg)	CFU count reduction in kidneys in comparison to the vehicle control group ([1]; dose 30 mg/kg SC QD)	Change from vehicle group ([1]; dose 30 mg/kg)	Avg. Log CFU/g (kidney pair) ([1]; dose 30 mg/kg)	MIC90 ([2]; ATCC27853, P. aeruginosa ATCC27853 strain, broth micro-dilution (CLSI), read-out: MIC 90)	MIC90 ([2]; ATCC27853, P. aeruginosa clinical isolate PA-179, Multidrug-resistant, origin Wound, read-out: MIC 90)	MIC90 ([2]; ATCC27853, P. aeruginosa clinical isolate PA-195, Multidrug-resistant, origin Catheter, read-out: MIC 90)	MIC90 ([2]; ATCC27853, P. aeruginosa clinical isolate PA-198, Multidrug-resistant, origin unkown)	MIC90 ([2]; ATCC27853, P. aeruginosa clinical isolate PA-202, Multidrug-resistant, origin Faeces, read-out: MIC 90)	MIC90 ([2]; ATCC 27853 / BAL, P. aeruginosa clinical isolate P4-171, Pandrug-resistant, origin BAL, read-out: MIC 90)	MIC90 ([3]; ATCC17978, A. baumannii ATCC17978 strain, broth micro-dilution (CLSI))	MIC90 ([3]; ATCC17978, A. baumannii clinical isolate AB-2, Multidrug-resistant, origin Sputum)	MIC90 ([3]; ATCC17978, A. baumannii clinical isolate AB-10, Multidrug-resistant, origin Blood culture)	MIC90 ([3]; ATCC17978, A. baumannii clinical isolate AB-14, Multidrug-resistant, origin Blood culture)	MIC90 ([3]; ATCC17978, A. baumannii clinical isolate AB-18, Multidrug-resistant, origin Bone)	samples with CFU counts below the limit of detection ([1]; kidneys, LOD=2.0×10^2 CFU/mL)
N=C(N)NC1C(O)[C@@H](CO)OC(OC2C(F)[C@H](O[C@H]3OC(CN)[C@@H](O)CC3N)C(N)C[C@H]2NC(=O)[C@@H](O)CCN)[C@@H]1O (stereo partly drawn) [ABX5006, Tobra-AHB-F-Gua]	1.38 log 10	1.38	2.60 Log CFU/g	1.53 log 10	1.53	1.45 Log CFU/g	0.25 µg/mL	2 to 4 µg/mL	0.5 to 1 µg/mL	1 to 2 µg/mL	0.25 to 0.5 µg/mL	8 µg/mL	< 0.125 µg/mL	0.5 to 1 µg/mL	0.5 to 1 µg/mL	0.5 to 1 µg/mL	2 to 4 µg/mL	
N=C(NC[C@@H]1CCCN1)NC1[C@@H](O)C(OC2[C@@H](F)[C@H](O[C@H]3OC(CN)[C@@H](O)CC3N)C(N)C[C@H]2NC(=O)[C@@H](O)CCN)O[C@H](CO)[C@H]1O (stereo partly drawn) [ABX5026, Tobra-AHB-F-Gua (S) pyrrolidine-2-yl-methyl]	1.58 log 10	1.58	1.40 Log CFU/g	1.72 log 10	1.22	2.26 Log CFU/g												five out of eight
